The record followed here is article PMC11995724, “Antibiotic target discovery by integrated phenotypic and activity-based profiling of electrophilic fragments” (Cell chemical biology, 2025).

This data set can be described thus: in vitro. To be noted: human, hek293t cells.
Turning to `CC(Cl)C(=O)N1CCn2c(nn(CC(=O)N(C)C)c2=O)C1` (centres unmarked) [7-K17, 2-[7-(2-chloropropanoyl)-3-oxo-2H,3H,5H,6H,7H,8H-[1,2,4]triazolo[4,3-a]pyrazin-2-yl]-N,N-dimethylacetamide], the viability – broadly, a read-out of living cells in per cent, often relative to untreated cells – at 48 h, 25 µM stood at 83.1%.

Consider `C#CCOc1ccccc1C=C(C#N)C(=O)Nc1ccccc1F` [9-C10, 2-cyano-N-(2-fluorophenyl)-3-[2-(prop-2-yn-1-yloxy)phenyl]prop-2-enamide], for which the viability at 48 h, 25 µM was 80.4%.

As for `C=CC(=O)Nc1ccc(-n2nc(C)[nH]c2=O)cc1` [2-E16, N-[4-(3-methyl-5-oxo-4,5-dihydro-1H-1,2,4-triazol-1-yl)phenyl]prop-2-enamide], the viability at 48 h, 25 µM is 101%.

As for `CCn1nc(C)c(CNC(=O)CCl)c1C` [7-P10, 2-chloro-N-[(1-ethyl-3,5-dimethyl-1H-pyrazol-4-yl)methyl]acetamide], the viability at 48 h, 25 µM is 30%.

In the case of `COc1ccc(C(NC(=O)CCl)C2CC2)cc1` (centres unmarked) [4-K19, 2-chloro-N-[cyclopropyl(4-methoxyphenyl)methyl]acetamide], the viability at 48 h, 25 µM is 2.83%.

On to `COc1ccc(CNC(=O)C(C)Cl)cc1OC` (centres unmarked) [6-P10, 2-chloro-N-[(3,4-dimethoxyphenyl)methyl]propanamide], for which the viability at 48 h, 25 µM was found to be 113%.

As to `N#CC(=Cc1ccccc1Cl)C(=O)Nc1ccc2c(c1)OCCO2` [8-F03, 3-(2-chlorophenyl)-2-cyano-N-(2,3-dihydro-1,4-benzodioxin-6-yl)prop-2-enamide], the viability at 48 h, 25 µM is 94.9%.

`C=CC(=O)N(C)c1ccc(C#N)c(Cl)c1` [3-G05, N-(3-chloro-4-cyanophenyl)-N-methylprop-2-enamide]: the viability at 48 h, 25 µM was determined as 0.69%.

`CC(C)CN(C(=O)CCl)c1cnn(-c2ccccn2)c1` [5-A12, 2-chloro-N-(2-methylpropyl)-N-[1-(pyridin-2-yl)-1H-pyrazol-4-yl]acetamide]: the viability at 48 h, 25 µM is 0.323%.

Regarding `N#CC(=Cc1cc2c(cc1[N+](=O)[O-])OCO2)C(=O)NC1CCCCC1` [8-F22, 2-cyano-N-cyclohexyl-3-(6-nitro-1,3-dioxaindan-5-yl)prop-2-enamide], the viability at 48 h, 25 µM was found to be 87.7%.

For `Cc1cc(C(=O)CCl)c(C)n1-c1ccon1` [10-F06, 2-chloro-1-[2,5-dimethyl-1-(1,2-oxazol-3-yl)-1H-pyrrol-3-yl]ethan-1-one], the viability at 48 h, 25 µM was 1.56%.

For the molecule `CC(=O)NCc1ccc(C2CCCN2C(=O)CCl)o1` (centres unmarked) [5-P13, N-({5-[1-(2-chloroacetyl)pyrrolidin-2-yl]furan-2-yl}methyl)acetamide], the viability at 48 h, 25 µM amounted to 0.652%.

`CC(Cl)C(=O)Nc1ccc(F)c(F)c1` (centres unmarked) [6-P08, 2-chloro-N-(3,4-difluorophenyl)propanamide]: the viability at 48 h, 25 µM was determined as 101%.

`O=C(CCl)N(CC1=CCSC1)c1ccccc1` [4-F11, 2-chloro-N-[(2,5-dihydrothiophen-3-yl)methyl]-N-phenylacetamide]: the viability at 48 h, 25 µM came out at 0.548%.

Regarding `COc1ccc(N(C(=O)CCl)C2CCS(=O)(=O)C2)cc1` (centres unmarked) [5-I20, 2-chloro-N-(1,1-dioxo-1lambda6-thiolan-3-yl)-N-(4-methoxyphenyl)acetamide], the viability at 48 h, 25 µM is 2.54%.

As for `O=C(CCl)NC(=O)c1ccc(OC(F)F)cc1` [5-J22, N-(2-chloroacetyl)-4-(difluoromethoxy)benzamide], the viability at 48 h, 25 µM turned out to be 108%.

As to `C=CC(=O)N1CCN(C(=O)c2ccco2)CC1` [1-P11, 1-[4-(furan-2-carbonyl)piperazin-1-yl]prop-2-en-1-one], the viability at 48 h, 25 µM turned out to be 88.3%.

As for `C=CC(=O)Nc1cccc(OC(C)(C)C)c1` [3-G14, N-[3-(tert-butoxy)phenyl]prop-2-enamide], the viability at 48 h, 25 µM is 85.8%.

With `CC(Cl)C(=O)NCc1nc2cccnc2n1C` (centres unmarked) [7-O17, 2-chloro-N-({3-methyl-3H-imidazo[4,5-b]pyridin-2-yl}methyl)propanamide], the viability at 48 h, 25 µM was determined as 103%.

With `C=CC(=O)NC(Cc1nc(C)no1)c1ccccc1` (centres unmarked) [1-B22, N-[2-(3-methyl-1,2,4-oxadiazol-5-yl)-1-phenylethyl]prop-2-enamide], the viability at 48 h, 25 µM came out at 68.5%.

As to `CC(C)c1nc(C=C(C#N)C(=O)NC2CCCCC2)c2ccccn12` [9-B15, 2-cyano-N-cyclohexyl-3-[3-(propan-2-yl)imidazo[1,5-a]pyridin-1-yl]prop-2-enamide], the viability at 48 h, 25 µM came out at 103%.

In the case of `C=CC(=O)NC1(c2ccccc2)CCCC1` [1-O15, N-(1-phenylcyclopentyl)prop-2-enamide], the viability at 48 h, 25 µM is 95.6%.

Take `CSc1ccccc1NC(=O)CN(C)C(=O)CCl` [4-L03, 2-chloro-N-methyl-N-({[2-(methylsulfanyl)phenyl]carbamoyl}methyl)acetamide]: the viability at 48 h, 25 µM stood at 0.451%.

On to `CCC(C)n1nccc1NC(=O)C(C)Cl` (centres unmarked) [6-A20, N-[1-(butan-2-yl)-1H-pyrazol-5-yl]-2-chloropropanamide], for which the viability at 48 h, 25 µM turned out to be 84.8%.

Consider `C=CC(=O)N1CCC(C(=O)NC(C)(c2noc(C)n2)C2CC2)CC1` (centres unmarked) [2-B10, N-[1-cyclopropyl-1-(5-methyl-1,2,4-oxadiazol-3-yl)ethyl]-1-(prop-2-enoyl)piperidine-4-carboxamide], for which the viability at 48 h, 25 µM turned out to be 79.8%.

Consider `C=CC(=O)N(C)CC(=O)N1CCC(c2nc(-c3ccccc3)n[nH]2)CC1` [2-H20, N-methyl-N-{2-oxo-2-[4-(3-phenyl-1H-1,2,4-triazol-5-yl)piperidin-1-yl]ethyl}prop-2-enamide], for which the viability at 48 h, 25 µM stood at 67.6%.

`O=C(O)C(c1ccccc1)N1C(=O)C=CC1=O` (centres unmarked) [10-E21, 2-(2,5-dioxo-2,5-dihydro-1H-pyrrol-1-yl)-2-phenylacetic acid]: the viability at 48 h, 25 µM came to 92.4%.

For the molecule `CC(Cl)C(=O)c1ccc(C(C)(C)C)cc1` (centres unmarked) [10-D14, 1-(4-tert-butylphenyl)-2-chloropropan-1-one], the viability at 48 h, 25 µM turned out to be 77.6%.

On to `O=C(CCl)Nc1ccccc1F` [4-M16, 2-chloro-N-(2-fluorophenyl)acetamide], for which the viability at 48 h, 25 µM came to 0.723%.

`N#CC(C(=O)CCl)c1nncn1-c1ccccc1` (centres unmarked) [10-L14, 4-chloro-3-oxo-2-(4-phenyl-4H-1,2,4-triazol-3-yl)butanenitrile]: the viability at 48 h, 25 µM came to 83.7%.

With `Cc1oc(C(N)=O)cc1C(=O)CCl` [10-M05, 4-(2-chloroacetyl)-5-methylfuran-2-carboxamide], the viability at 48 h, 25 µM was determined as 27.7%.

On to `COc1ccccc1C(NC(=O)C(C)Cl)c1ccco1` (centres unmarked) [5-H19, 2-chloro-N-[(furan-2-yl)(2-methoxyphenyl)methyl]propanamide], for which the viability at 48 h, 25 µM came to 120%.

For the molecule `C=CC(=O)NC(c1ccc(F)cc1)c1ccccn1` (centres unmarked) [3-N14, N-[(4-fluorophenyl)(pyridin-2-yl)methyl]prop-2-enamide], the viability at 48 h, 25 µM was found to be 97%.

Regarding `CC(Cl)C(=O)NCCC1(C)OCCO1` (centres unmarked) [7-E17, 2-chloro-N-[2-(2-methyl-1,3-dioxolan-2-yl)ethyl]propanamide], the viability at 48 h, 25 µM was 82.4%.

As for `CC(c1ccc(S(N)(=O)=O)cc1)N(C)C(=O)CCl` (centres unmarked) [7-H12, 2-chloro-N-methyl-N-[1-(4-sulfamoylphenyl)ethyl]acetamide], the viability at 48 h, 25 µM stood at 0.618%.

With `COc1ccc(N2C(=O)C=CC2=O)c(OC)c1` [10-J15, 1-(2,4-dimethoxyphenyl)-2,5-dihydro-1H-pyrrole-2,5-dione], the viability at 48 h, 25 µM worked out at 109%.

For the molecule `C=CC(=O)NCCN1CCOCC1C` (centres unmarked) [2-I05, N-[2-(3-methylmorpholin-4-yl)ethyl]prop-2-enamide], the viability at 48 h, 25 µM stood at 79.2%.

`O=C(CCl)Nc1ccc(S(=O)(=O)c2ccc(F)cc2)cc1` [6-O14, 2-chloro-N-[4-(4-fluorobenzenesulfonyl)phenyl]acetamide]: the viability at 48 h, 25 µM was 0.578%.

With `O=C(CCl)NCCOc1cccc(Cl)c1` [6-G05, 2-chloro-N-[2-(3-chlorophenoxy)ethyl]acetamide], the viability at 48 h, 25 µM was 107%.

Turning to `C=CC(=O)N[C@H]1CCCC[C@H]1c1ccnn1C` (racemic) [2-G18, rac-N-[(1R,2S)-2-(1-methyl-1H-pyrazol-5-yl)cyclohexyl]prop-2-enamide], the viability at 48 h, 25 µM worked out at 103%.

Take `C=CC(=O)N1CCCN(S(=O)(=O)c2ccc(OC)cc2)CC1` [3-G10, 1-[4-(4-methoxybenzenesulfonyl)-1,4-diazepan-1-yl]prop-2-en-1-one]: the viability at 48 h, 25 µM is 96.8%.

For `Cc1c(C#N)c(NC(=O)CCl)n(Cc2ccco2)c1C` [4-D09, 2-chloro-N-{3-cyano-1-[(furan-2-yl)methyl]-4,5-dimethyl-1H-pyrrol-2-yl}acetamide], the viability at 48 h, 25 µM is -0.0889%.

For `N#CC(=Cc1cn(-c2ccccc2)nc1-c1ccc(Cl)cc1)C(N)=O` [8-H16, 3-[3-(4-chlorophenyl)-1-phenyl-1H-pyrazol-4-yl]-2-cyanoprop-2-enamide], the viability at 48 h, 25 µM stood at 125%.

As for `O=C(CCl)NCC12CCCCC1C2(F)F` (centres unmarked) [5-C18, 2-chloro-N-({7,7-difluorobicyclo[4.1.0]heptan-1-yl}methyl)acetamide], the viability at 48 h, 25 µM is 8.39%.

As to `CC(Cl)C(=O)Nc1ccc(Cc2nnc3ncccn23)cc1` (centres unmarked) [7-O22, 2-chloro-N-[4-({[1,2,4]triazolo[4,3-a]pyrimidin-3-yl}methyl)phenyl]propanamide], the viability at 48 h, 25 µM was found to be 74.1%.

As for `CC(Cl)C(=O)Nc1cc2c(cc1Cl)C(=O)c1ccccc1C2=O` (centres unmarked) [4-I12, 2-chloro-N-(3-chloro-9,10-dioxo-9,10-dihydroanthracen-2-yl)propanamide], the viability at 48 h, 25 µM is 79.4%.

In the case of `Cc1cc(C(C)N(Cc2c(C)noc2C)C(=O)CCl)c(C)o1` (centres unmarked) [5-E16, 2-chloro-N-[(3,5-dimethyl-1,2-oxazol-4-yl)methyl]-N-[1-(2,5-dimethylfuran-3-yl)ethyl]acetamide], the viability at 48 h, 25 µM came to 1.18%.

Take `N#CC(=Cc1cccc(F)c1F)C(N)=O` [9-A03, 2-cyano-3-(2,3-difluorophenyl)prop-2-enamide]: the viability at 48 h, 25 µM turned out to be 115%.

Regarding `C=CC(=O)NC(c1nc(C)cs1)C(F)(F)F` (centres unmarked) [2-I17, N-[2,2,2-trifluoro-1-(4-methyl-1,3-thiazol-2-yl)ethyl]prop-2-enamide], the viability at 48 h, 25 µM worked out at 102%.

In the case of `C=CC(=O)N1CCn2nccc21` [1-P16, 1-{1H,2H,3H-pyrazolo[1,5-a]imidazol-1-yl}prop-2-en-1-one], the viability at 48 h, 25 µM turned out to be 56.6%.
